Laboratory results: US20060074073A1, “Therapeutic combinations comprising poly (ADP-ribose) polymerases inhibitor” (AGOURON PHARMACEUTICALS, INC., priority 2004, published 2006)
Marks after values point to notes of the source that are not given here.

How the values were obtained:
human H460 NSCLC cells = test: In vitro chemosensitization of standard chemotherapeutic agents; format: cell-based
PARP = test: Tumor PARP catalytic activity, 32P-NAD incorporation in SW620 tumor homogenates of treated animals; format: in vivo, mice; conditions: temozolomide alone, oral gavage
Protocol: Tumours were excised and were snap frozen in liquid nitrogen and stored at −80° C. until homogenised for analysis. The specimen was defrosted on ice and the wet weight documented. The tissue was homogenised using a Pro 2000 instrument (Pro Scientific Inc, Monroe, Conn., USA) in 3 volumes (i.e. 1 mg plus 3 μl isotonic buffer −7 mM Hepes, 26 mM KCl, 0.1 mM dextran, 0.4 mM EGTA, 0.5 mM MgCl2, 45 mM sucrose, pH 7.8), giving a homogenate with an overall dilution of 1 in 4. The homogenate was kept on ice throughout the process, and homogenisation was performed in 10 second bursts to prevent undue warming of the sample. Prior to assay the samples were further diluted with isotonic buffer where necessary to give a final dilution of 1 in 40 for [^32P]NAD incorporation assay or 1 in 1000 for immunoblot aaasy.
Briefly, cells were suspended in hypotonic buffer (9 mM HEPES pH 7.8, 4.5% (v/v) dextran, 4.5 mM MgCl2 and 5 mM DTT) at 1.5×10^7/ml on ice for 30 minutes then 9 vol of isotonic buffer (40 mM HEPES pH 7.8, 130 mM KCl, 4% (v/v) dextran, 2 mM EGTA, 2.3 mM MgCl2, 225 mM sucrose and 2.5 mM DTT) was added. The reaction was started by adding 300 μl cells to 100 μl 300 μM NAD^+ containing [^32P]-NAD^+ (Amersham, UK), and terminated by the addition of 2 ml ice cold 10% (w/v) TCA+10% (w/v) sodium pyrophosphate. After 30 min on ice the precipitated ^32P—labelled ADP-ribose polymers were filtered on Whatman GC/C filters (Whatman Intemational Ltd, Kent, UK), washed 5 times with 1% (v/v) TCA/1% (v/v) sodium pyrophosphate, dried and counted. PARP inhibitory IC50 values were calculated from computer-fitted curves (GraphPad Software, Inc., San Diego, Calif.).
Tumour homogenates were assayed in a similar manner; however, the homogenisation process introduces sufficient DNA damage to maximally stimulate PARP activity and oligonucleotide was not therefore required. Results were expressed in terms of pmol PAR former per mg tumour.
Preparation of Tumour/Tissue Samples • 1. The frozen tumour samples are weighed. • 2. 3 volumes (i.e. 3 μl solution added for each 1 mg tissue) of isotonic buffer plus DTT is added to the tumour sample. This is stored on ice until and during homogenisation. • 3. The sample is homogenised on ice within a Class II cabinet for 10-second bursts until no detectable macroscopic pieces of tissue are visible. • 4. Sufficient volume of the homogenate is diluted 1 in 10 with isotonic buffer plus DTT to provide an overall dilution of 1 in 40 from the original sample. A final volume of 3 ml is sufficient for triplicate sampling and a subsequent protein assay. • 5. The diluted homogenate is stored on ice and assayed within one hour as below.
PARP Assay of Tumour/Tissue Samples • 1. ^32P 600 μM NAD solution is prepared fresh on the day of experiment as detailed above. Oligonucleotide stock is removed from storage and defrosted. • 2. Water bath is warmed to 26° C. and set to agitate at 70 oscillations per minute.
3. Reaction test tubes are set up as per table A for the QC samples and as per table B for the homogenate.
• 4. Each QC sample is assayed in triplicate, with T0, +oligo and −oligo samples ×3. (Total of 9 tubes per sample, if low cell counts −oligo samples are omitted.) Homogenates are also assayed in triplicate, with T0 and reaction samples ×3. (Total 6 tubes per sample). • 5. 2 ml ice cold 10% TCA+10% NaPPi is added to the T0 tubes prior to addition of homogenate or cells, to correct for non-specific binding of radio-label to the filter. • 6. Reaction test tubes homogenates and QC cells are warmed in the water bath to 26° C. for 7 minutes. • 7. Each preparation is vortexed briefly and the reaction is started by adding 300 μl of this to each reaction tube. • 8. The reaction is stopped exactly 6 minutes after addition of homogenate by adding 2 ml of ice cold 10% TCA+10% NaPPi and vortexing. • 9. The tube is then incubated on ice for at least one hour prior to filtration. • 10. […]

SW620 xenograft = test: In vivo antitumor efficacy with irinotecan, SW620 xenograft; parameters: species or system mice
Description: In no combination study was antagonism observed.

[1] = GI50 single agent/GI50 agent +0.4 μM compound of formula 1 as glucuronate salt
[2] = GI50 single agent/GI50 agent +0.4 μM Compound I (phosphate salt) instead of glucuronate salt

## O=c1[nH]cc(F)c(=O)[nH]1 [5-Fluorouracil]
Human H460 NSCLC cells; [1]
  PF50 (H460): 0.92

## Nc1nc2nc[nH]c2c(=S)[nH]1 [6-thioguanine]
Human H460 NSCLC cells; [1]
  PF50 (H460): 1.1

## N.N.[Cl][Pt][Cl] [Cisplatin]
Human H460 NSCLC cells; [1]
  PF50 (H460): 1.2

## COc1cccc2c1C(=O)c1c(O)c3c(c(O)c1C2=O)C[C@@](O)(C(=O)CO)C[C@@H]3O[C@H]1C[C@H](N)[C@H](O)[C@H](C)O1 [Doxorubicin]
Human H460 NSCLC cells; [1]
  PF50 (H460): 1.1

## COc1cc([C@@H]2c3cc4c(cc3[C@@H](O[C@@H]3O[C@@H]5CO[C@@H](C)O[C@H]5[C@H](O)[C@H]3O)[C@H]3COC(=O)[C@H]23)OCO4)cc(OC)c1O [Etoposide]
Human H460 NSCLC cells; [2]
  PF50 (H460): 0.75^b

## Nc1ccn([C@@H]2O[C@H](CO)[C@@H](O)C2(F)F)c(=O)n1 [Gemcitabine]
Human H460 NSCLC cells; [1]
  PF50 (H460): 1.2

## O=C1[O][Pt]2([NH][C@@H]3CCCC[C@H]3[NH]2)[O]C1=O [Oxaliplatin]
Human H460 NSCLC cells; [2]
  PF50 (H460): 0.98^b

## CC(=O)O[C@H]1C(=O)[C@@]2(C)[C@H]([C@H](OC(=O)c3ccccc3)[C@]3(O)C[C@H](OC(=O)[C@H](O)[C@@H](NC(=O)c4ccccc4)c4ccccc4)C(C)=C1C3(C)C)[C@]1(OC(C)=O)CO[C@@H]1C[C@@H]2O [Paclitaxel]
Human H460 NSCLC cells; [1]
  PF50 (H460): 0.77

## CCc1c2c(nc3ccc(O)cc13)-c1cc3c(c(=O)n1C2)COC(=O)[C@]3(O)CC [SN-38]
Human H460 NSCLC cells; [1]
  PF50 (H460): 2.2

## Cn1nnc2c(C(N)=O)ncn2c1=O [Temozolomide, reference compound]
PARP
  PARP Activity (%): 100%
Human H460 NSCLC cells; [2]
  PF50 (H460): 3.7^b

## CC[C@@]1(O)C(=O)OCc2c1cc1n(c2=O)Cc2cc3c(CN(C)C)c(O)ccc3nc2-1 [Topotecan]
Human H460 NSCLC cells; [1]
  PF50 (H460): 1.6

## CCc1c2c(nc3ccc(OC(=O)N4CCC(N5CCCCC5)CC4)cc13)-c1cc3c(c(=O)n1C2)COC(=O)[C@]3(O)CC [irinotecan, reference compound]
SW620 xenograft; irinotecan 25 mg/kg, QW×3 IP
  inhibition of SW620 tumor growth as single agent: did not significantly inhibit SW620 tumor growth
SW620 xenograft; irinotecan single agent groups
  toxicity: No significant toxicity
